Test results as given in patent US12240862B2, “Inhibitors of peptidylarginine deiminases” (Gilead Sciences, Inc., priority 2020, dated 2025).

Target: T1, human PAD4 (Homo sapiens, UniProt Q9UM07)
T1 construct: human PAD4 (NM_012387), A2P663, was PCR amplified; His-SUMO (N, cleaved yes); made in house; host or cells: E. coli BL21(DE3)
Test: In vitro PAD4 BAEE biochemical assay
Conditions: human PAD4, BAEE substrate; 5 nM PAD4, 2 mM calcium chloride, 3 mM BAEE; geometric mean of multiple experiments
Method: The PCR product was ligated into linearized pET-SUMO vector (Invitrogen, Carlsbad, CA), which is part of the Champion™ pET SUMO Protein Expression System. After sequence verification for the correct orientation, the pET-SUMO-hPAD4 expression plasmid was transformed into BL21(DE3) cells.
E. Coli BL21(DE3) cells were inoculated in LB medium with kanamycin at 37° C. until A600 nm reached about 0.5. Protein expression was induced by addition of 0.5 mM IPTG (final) and continued overnight at 16° C. at 220 rpm.
Cells were harvested by centrifugation at 5000 rpm for 10 minutes at 4° C. The pellet was resuspended in 300 ml lysis buffer (20 mM Tris-HCl, pH 8.0, 1 mM EDTA, 500 mM NaCl, 1 mM (tris(2-carboxyethyl)phosphine) (TCEP), 10% glycerol, and 1% Triton X100 and EDTA free protease inhibitor) and lysed by 3× passage through a microfluidizer (Microfluidics, Newton, MA) at 18,000 psi. The cell lysate was clarified by centrifugation at 30,000 rpm for 60 minutes at 4° C. […] Bound protein was eluted with a 0-100% linear gradient of 100 mL Ni-B buffer (Ni A buffer+0.5 M Imidazole).
The protein was then reloaded onto a Ni—HP column for a reverse purification step and recovered in flow through fraction. The protein with His-Sumo tag removed was then polished using a 16/60 Superdex-200 gel filtration column with gel filtration buffer (20 mM Tris pH 8.0, NaCl 400 mM and 1 mM TCEP). The fractions containing the protein were pulled and frozen at −80° C.
The enzymatic activity of human PAD4 was monitored in a biochemical assay in the presence or absence of compounds using the small peptidyl arginine mimic BAEE (Na-Benzoyl-L-arginine ethyl ester hydrochloride) as substrate. PAD4 activity led to deamination of BAEE and release of ammonia. Levels of ammonia were monitored by using an amine coupling reaction and were indicative of PAD4 enzymatic activity.
One hundred nanoliters of test compounds dissolved in DMSO at various concentrations were dispensed into a 384-well black OptiPlate using a Labcyte Echo instrument. Ten microliters of a solution of recombinant PAD4 and calcium chloride diluted in PAD4 assay buffer (50 mM MOPS [3-(N-morpholino) propanesulfonic acid], pH 7.6; 50 mM sodium chloride; 0.05% Tween-20; 2 mM dithiothreitol) was added to the compound-containing plate and was incubated for 30 minutes at 25° C. Ten microliters of a solution of BAEE (Sigma-Aldrich #B4500) diluted in PAD4 assay buffer was then added to start the reaction. Final concentrations were 5 nM PAD4, 2 mM calcium chloride, and 3 mM BAEE. The reaction mixture was incubated at 25° C. for 2 hours and was stopped with the addition of 10 microliters of a solution of 75 mM EDTA (Ethylenediaminetetraacetic acid) in PAD4 assay buffer. Thirty microliters of detection solution (5 mM o-phthalaldehyde, 50 mM MOPS [3-(N-morpholino) propanesulfonic acid], pH 7.6; 50 mM sodium chloride; 0.05% Tween-20; 5 mM dithiothreitol) was then added and the reaction was incubated for 1 hour at 25° C.

T1 sequence (Q9UM07 2-663): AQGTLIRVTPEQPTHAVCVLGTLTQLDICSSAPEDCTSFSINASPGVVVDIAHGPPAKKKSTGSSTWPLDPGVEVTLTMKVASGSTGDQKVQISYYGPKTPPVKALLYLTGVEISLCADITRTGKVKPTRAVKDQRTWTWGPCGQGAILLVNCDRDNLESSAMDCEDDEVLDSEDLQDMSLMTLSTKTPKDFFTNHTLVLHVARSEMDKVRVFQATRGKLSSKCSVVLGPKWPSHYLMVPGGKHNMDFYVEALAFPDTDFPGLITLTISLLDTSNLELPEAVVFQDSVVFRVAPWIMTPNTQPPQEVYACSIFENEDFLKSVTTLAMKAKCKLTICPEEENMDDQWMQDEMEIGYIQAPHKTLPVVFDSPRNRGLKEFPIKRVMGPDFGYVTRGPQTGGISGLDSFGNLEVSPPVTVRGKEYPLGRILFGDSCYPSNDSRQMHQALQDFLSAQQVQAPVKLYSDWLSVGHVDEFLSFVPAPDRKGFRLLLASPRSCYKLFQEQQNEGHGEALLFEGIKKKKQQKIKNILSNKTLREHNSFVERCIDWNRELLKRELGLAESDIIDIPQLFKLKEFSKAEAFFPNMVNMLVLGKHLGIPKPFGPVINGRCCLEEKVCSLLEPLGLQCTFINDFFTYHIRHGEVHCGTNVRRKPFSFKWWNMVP

SMILES	IC50
COc1cc(C(=O)N2C[C@H]3C[C@@]3(N)C2)cc2nc(-c3cc4ccc([C@@H](C)NC(=O)C56CC(F)(C5)C6)nc4n3CC3CC3)c(C)n12 [Example 24, ~{N}-[(1~{R})-1-[2-[7-[(1~{S},5~{R})-1-amino-3-azabicyclo [3.1.0]hexane-3-carbonyl]-5-methoxy-3-methylimidazo [1,2-a]pyridin-2-yl]-1-(cyclopropylmethyl)pyrrolo[2,3-b]pyridin-6-yl]ethyl]-3-fluorobicyclo[1.1.1] pentane-1-carboxamide]	9010 nM
CC(=O)NCc1c(-c2cc3ccc(N(C(F)F)S(C)(=O)=O)nc3n2CC2CC2)nc2cc(C(=O)N3CCC[C@@H](N)C3)ccn12 [Example 437, ~{N}-[[7-[(3~{R})-3-aminopiperidine-1-carbonyl]-2-[1-(cyclopropylmethyl)-6-[difluoromethyl (methylsulfonyl)amino]pyrrolo[2,3-b]pyridin-2-yl]imidazo[1,2-a]pyridin-3-yl]methyl]acetamide]	550 nM
COc1cc(C(=O)N2C[C@H]3CC(F)[C@@H]2[C@@H]3N)cc2nc(-c3cc4ccc(N(C(F)F)S(C)(=O)=O)nc4n3CC3CC3)c(C)n12 (stereo partly drawn) [Example 361, N-[2-[7-[(1S,4R,7R)-7-amino-6-fluoro-2-azabicyclo[2.2.1]heptane-2-carbonyl]-5-methoxy-3-methyl-imidazo[1,2-a]pyridin-2-yl]-1-(cyclopropylmethyl)pyrrolo [2,3-b]pyridin-6-yl]-N-(difluoromethyl) methanesulfonamide]	258 nM
COc1cc(C(=O)N2CCC[C@@H](N)[C@H]2C)cc2nc(-c3cc4ccc(N(C)S(C)(=O)=O)nc4n3CC3CC3)c(C)n12 [Example 480, ~{N}-[2-[7-[(2~{R}, 3~{R})-3-amino-2-methylpiperidine-1-carbonyl]-5-methoxy-3-methylimidazo[1,2-a]pyridin-2-yl]-1-(cyclopropylmethyl)pyrrolo [2,3-b]pyridin-6-yl]-~{N}-methylmethanesulfonamide]	166 nM
COc1cc(C(=O)N2CC[C@@H]3CCNC[C@H]32)cc2nc(-c3cc4ccc(N(C(F)F)S(C)(=O)=O)nc4n3CC3CC3)c(C)n12 [Example 418, ~{N}-[2-[7-[(3~{a}~{S}, 7~{a}~{S})-2,3,3~{a},4,5,6,7,7~{a}-octahydropyrrolo[2,3-c]pyridine-1-carbonyl]-5-methoxy-3-methylimidazo[1,2-a]pyridin-2-yl]-1-(cyclopropylmethyl)pyrrolo [2,3-b]pyridin-6-yl]-~{N}-(difluoromethyl) methanesulfonamide]	151 nM

The next compounds have a lower IC50 than those just listed; values first:

IC50	SMILES
45.5 nM	COc1cc(C(=O)N2[C@H]3CC[C@@H]2[C@H](N)C3)cc2nc(-c3cc4ccc([C@@H](C)NC(=O)C(C)(C)C(=O)O)nc4n3CC3CC3)c(C)n12 [Example 155, 3-[[(1~{R})-1-[2-[7-[(1~{R},2~{R},4~{S})-2-amino-7-azabicyclo[2.2.1]heptane-7-carbonyl]-5-methoxy-3-methylimidazo [1,2-a]pyridin-2-yl]-1-(cyclopropylmethyl)pyrrolo [2,3-b]pyridin-6-yl]ethyl]amino]-2,2-dimethyl-3-oxopropanoic acid]
44.2 nM	COc1cc(C(=O)N2[C@H]3CC[C@@H]2[C@H](N)C3)cc2nc(-c3cc4ccc([C@@H](C)NC(=O)C5(O)CCCC5)nc4n3CC3CC3)c(C)n12 [Example 88, ~{N}-[(1~{R})-1-[2-[7-[(1~{R},2~{R},4~{S})-2-amino-7-azabicyclo[2.2.1]heptane-7-carbonyl]-5-methoxy-3-methylimidazo [1,2-a]pyridin-2-yl]-1-(cyclopropylmethyl)pyrrolo [2,3-b]pyridin-6-yl]ethyl]-1-hydroxycyclopentane-1-carboxamide]
39 nM	COc1cc(C(=O)N2[C@H]3CC[C@@H]2[C@H](N)C3)cc2nc(-c3cc4ccc([C@@H](C)NC(=O)CN=S(C)(C)=O)nc4n3CC3CC3)c(C)n12 [Example 96]
